Usually half-life stands for the time needed for the level to fall by half in the phase considered. A high value points to slow loss.

Square brackets hold non-standard residues; d marks the D form. Side chains are listed from the residue outwards. Peptide text beside a SMILES is read from it. * marks the point of attachment. X1 = NCCCCC(N)CN1CCC[C@H]1C(=O)*; Ahx = NCCCCCC(=O)O

One data set is described as follows: Half-life in human serum. It is filed as in vitro ADME. The conditions noted are these: human serum at 37° C. The source says:
(§1) The term “standard peptide bond” means an amide bond of formula (—CONH—) which is normally present between 2 amino acids in a natural protein. Such a bond is sensitive to the action of proteases. The term “modified peptide bonds ψ” means a chemical bond between 2 amino acids of chemical formula distinct from the standard peptide bond of formula (—CONH—). […] The term “protease”, also known as “peptidase” or “proteolytic enzyme”, means any enzyme which cleaves the standard peptide bonds in proteins. This process is known as proteolytic cleavage. This involves the use of a water molecule which is what leads to proteases being classified as hydrolases. The proteases namely include proteases known as N-peptidases which carry out the cleavage of the N-terminal end of proteins. These proteases are particularly inconvenient in terms of the in vivo stability of peptides without modified peptide bonds.

Data set [1] can be described thus: Half-life in foetal calf serum. It is filed as in vitro ADME. The note with it: bovine; foetal calf serum at 37° C.
Text: as §1

For the molecule `N=C(N)NCCC[C@H](NC(=O)[C@@H]1CCCN1CC(N)CCCCN)C(=O)NCCCC[C@H](NC(=O)[C@H](CCCCN)NC(=O)[C@H](CCCCNC(=O)[C@H](CCCNC(=N)N)NC(=O)[C@@H]1CCCN1CC(N)CCCCN)NC(=O)[C@H](CCCNC(=N)N)NC(=O)[C@@H]1CCCN1CC(N)CCCCN)C(=O)NCC(=O)N1CCC[C@H]1C(=O)N[C@@H](CCCCNC(=O)[C@H](CCCNC(=N)N)NC(=O)[C@@H]1CCCN1CC(N)CCCCN)C(=O)N[C@@H](CCC(=O)O)C(=O)N[C@@H](CCCCNC(=O)[C@H](CCCNC(=N)N)NC(=O)[C@@H]1CCCN1CC(N)CCCCN)C(=O)NCCCCCC(N)=O` (some centres unmarked) [HB19, 5[Kψ(CH2N)PR]-TASP] (X1-RK([Arg-X1])KK([Arg-X1])GPK([Arg-X1])EK([Arg-X1])[Ahx]-NH2), the half-life (in “Half-life in human serum”; in data set [1]) was greater than 1440 min throughout.

The values are drawn from patent publication US20150018268A1, “MULTIVALENT SYNTHETIC COMPOUNDS AS ANTIBIOTIC TREATMENT” (CENTRE NATIONAL DE LA RECHERCHE SCIENTIFIQUE (CNRS), priority 2010, published 2015).
